Assay [1] addresses T1, Sentrin-specific protease 7 (Homo sapiens, UniProt Q9BQF6).
T1 sequence (Q9BQF6 whole entry): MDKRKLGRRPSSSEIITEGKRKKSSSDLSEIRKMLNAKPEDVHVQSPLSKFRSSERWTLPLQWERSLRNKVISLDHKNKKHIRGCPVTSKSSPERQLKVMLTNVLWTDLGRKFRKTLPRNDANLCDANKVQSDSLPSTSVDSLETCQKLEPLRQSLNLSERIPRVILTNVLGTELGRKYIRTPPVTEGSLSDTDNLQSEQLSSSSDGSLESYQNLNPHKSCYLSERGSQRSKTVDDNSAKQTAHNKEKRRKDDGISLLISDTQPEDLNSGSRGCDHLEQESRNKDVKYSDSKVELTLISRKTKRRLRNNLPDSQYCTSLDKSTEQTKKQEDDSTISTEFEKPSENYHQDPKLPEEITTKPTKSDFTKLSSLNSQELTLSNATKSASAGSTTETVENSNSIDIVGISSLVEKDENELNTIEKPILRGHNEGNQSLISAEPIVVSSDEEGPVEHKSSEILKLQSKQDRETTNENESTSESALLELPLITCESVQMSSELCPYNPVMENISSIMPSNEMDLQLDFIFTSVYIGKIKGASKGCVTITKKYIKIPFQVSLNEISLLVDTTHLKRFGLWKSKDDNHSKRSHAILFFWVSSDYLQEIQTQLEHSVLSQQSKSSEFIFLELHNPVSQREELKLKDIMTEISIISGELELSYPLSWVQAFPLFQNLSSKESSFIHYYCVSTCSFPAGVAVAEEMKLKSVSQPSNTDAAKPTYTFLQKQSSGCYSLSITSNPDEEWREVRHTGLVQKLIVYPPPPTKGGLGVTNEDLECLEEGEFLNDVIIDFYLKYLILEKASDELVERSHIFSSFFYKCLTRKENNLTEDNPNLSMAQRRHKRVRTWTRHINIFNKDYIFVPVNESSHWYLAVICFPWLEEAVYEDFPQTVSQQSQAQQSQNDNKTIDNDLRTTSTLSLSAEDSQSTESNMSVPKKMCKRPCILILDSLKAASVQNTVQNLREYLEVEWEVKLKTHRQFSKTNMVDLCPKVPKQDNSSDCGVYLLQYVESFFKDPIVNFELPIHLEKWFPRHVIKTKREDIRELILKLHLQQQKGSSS
It counts as functional.

The target in assay [2] is T2, Sentrin-specific protease 8 (Homo sapiens, UniProt Q96LD8).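 Also: luminescence read-out of SENP8 inhibition, dose-response confirmation following an ultra-high-throughput screen.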
T2 sequence (Q96LD8 whole entry): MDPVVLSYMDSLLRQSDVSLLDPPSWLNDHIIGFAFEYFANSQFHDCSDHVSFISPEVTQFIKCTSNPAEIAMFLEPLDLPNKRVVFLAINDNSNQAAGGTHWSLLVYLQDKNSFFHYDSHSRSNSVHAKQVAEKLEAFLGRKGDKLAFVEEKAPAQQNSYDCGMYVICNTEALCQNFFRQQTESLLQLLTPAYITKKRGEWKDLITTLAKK
It counts as functional.

The target in another assay is T3, Caspase-3 (Homo sapiens, UniProt P42574).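 Also: Dose-response selectivity test against caspase-3 for candidate inhibitors of sentrin-specific proteases (SENPs).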
T3 sequence (P42574 whole entry): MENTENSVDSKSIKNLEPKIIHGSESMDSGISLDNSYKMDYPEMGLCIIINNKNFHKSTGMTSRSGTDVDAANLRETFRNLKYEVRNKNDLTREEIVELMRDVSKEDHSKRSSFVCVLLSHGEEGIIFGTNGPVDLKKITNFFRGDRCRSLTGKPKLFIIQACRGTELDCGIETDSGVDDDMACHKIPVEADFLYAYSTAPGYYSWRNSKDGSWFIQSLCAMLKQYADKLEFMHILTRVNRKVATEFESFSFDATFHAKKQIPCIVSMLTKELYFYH
The format is functional.

The target in assay [3] is T4, Sentrin-specific protease 6 (Homo sapiens, UniProt Q9GZR1).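 Also: Luminescence-based dose-response confirmatory assay of SENP6 inhibition, following up an ultra-high-throughput screen.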
T4 sequence (Q9GZR1 whole entry): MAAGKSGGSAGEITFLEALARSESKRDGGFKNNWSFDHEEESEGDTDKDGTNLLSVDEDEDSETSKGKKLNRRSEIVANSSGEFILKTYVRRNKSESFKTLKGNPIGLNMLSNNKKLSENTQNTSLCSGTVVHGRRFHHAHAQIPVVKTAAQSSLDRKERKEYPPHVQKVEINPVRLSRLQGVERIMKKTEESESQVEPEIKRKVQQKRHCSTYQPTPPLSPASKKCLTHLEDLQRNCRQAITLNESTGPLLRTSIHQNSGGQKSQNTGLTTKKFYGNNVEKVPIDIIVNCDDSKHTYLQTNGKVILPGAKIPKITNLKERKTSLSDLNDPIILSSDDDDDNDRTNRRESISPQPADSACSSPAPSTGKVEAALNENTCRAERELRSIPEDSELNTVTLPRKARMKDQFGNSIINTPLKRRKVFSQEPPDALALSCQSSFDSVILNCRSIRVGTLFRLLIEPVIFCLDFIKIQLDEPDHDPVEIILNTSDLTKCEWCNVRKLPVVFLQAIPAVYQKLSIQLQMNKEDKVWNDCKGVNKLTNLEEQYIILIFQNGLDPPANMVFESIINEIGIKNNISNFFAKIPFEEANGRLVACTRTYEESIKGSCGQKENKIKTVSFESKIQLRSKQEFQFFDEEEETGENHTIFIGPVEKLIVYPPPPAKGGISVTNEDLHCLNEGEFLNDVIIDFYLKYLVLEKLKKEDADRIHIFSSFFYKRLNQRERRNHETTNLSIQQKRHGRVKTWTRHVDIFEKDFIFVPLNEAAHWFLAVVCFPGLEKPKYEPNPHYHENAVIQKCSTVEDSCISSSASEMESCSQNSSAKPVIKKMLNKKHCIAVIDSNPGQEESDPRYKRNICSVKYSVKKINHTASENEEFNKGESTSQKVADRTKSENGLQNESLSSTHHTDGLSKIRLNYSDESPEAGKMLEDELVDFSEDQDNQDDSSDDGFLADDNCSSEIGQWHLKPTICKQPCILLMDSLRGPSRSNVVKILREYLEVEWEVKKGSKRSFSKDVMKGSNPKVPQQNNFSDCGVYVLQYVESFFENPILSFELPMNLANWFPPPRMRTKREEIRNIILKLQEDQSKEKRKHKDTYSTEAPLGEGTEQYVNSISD
The format is functional.

Another assay concerns HEK293. The experiment in a line: inhibitors of LMP1-driven NF-kB reporter, dose response, cell-based, HEK293, luciferase, cherry-pick (AID 588343). The format is functional. To be noted: Homo sapiens.
The nature of assay [4]: Shn3 3'UTR reporter inhibitors, dose response, cell-based, Clone20 osteoblasts, firefly luciferase, cherry-picked (AID 624132).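 Also: firefly luciferase luminescence from reporter carrying the Shn3 3'UTR in osteoblasts.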 It counts as functional.
A short description of assay [5]: control 3'UTR Renilla luciferase suppression, dose response, counter-screen for Shn3 inhibitor project, cell-based, Clone20-Shn3RL, cherry-picked (AID 624133). It counts as functional. (Counterscreens check selectivity or assay interference.)
A further assay has as its target T5, Protein skinhead-1 (Caenorhabditis elegans, UniProt P34707).
T5 sequence (P34707 whole entry): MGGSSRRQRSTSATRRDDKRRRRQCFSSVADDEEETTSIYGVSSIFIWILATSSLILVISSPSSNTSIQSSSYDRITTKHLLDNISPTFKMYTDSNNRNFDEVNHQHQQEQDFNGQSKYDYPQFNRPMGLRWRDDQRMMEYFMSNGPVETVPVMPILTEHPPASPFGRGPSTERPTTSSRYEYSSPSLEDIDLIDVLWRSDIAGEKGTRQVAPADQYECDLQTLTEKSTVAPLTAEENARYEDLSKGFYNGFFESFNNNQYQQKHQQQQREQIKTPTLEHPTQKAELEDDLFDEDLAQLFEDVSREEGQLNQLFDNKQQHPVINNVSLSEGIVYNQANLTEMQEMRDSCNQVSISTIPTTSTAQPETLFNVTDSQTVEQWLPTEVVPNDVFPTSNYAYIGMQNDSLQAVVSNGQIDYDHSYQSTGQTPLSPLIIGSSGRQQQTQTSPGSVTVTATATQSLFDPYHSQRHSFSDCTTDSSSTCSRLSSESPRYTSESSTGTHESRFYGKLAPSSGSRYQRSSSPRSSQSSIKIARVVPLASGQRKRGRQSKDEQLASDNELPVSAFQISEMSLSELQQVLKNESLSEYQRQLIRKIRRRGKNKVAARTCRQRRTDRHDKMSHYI
It counts as functional.

The target of the next assay is Cytochrome P450 2C9 (Homo sapiens, UniProt P11712).

The structures appear in SMILES notation. Active and inactive are the calls of the source.

Chain of Cytochrome P450 2C9 (P11712 whole entry): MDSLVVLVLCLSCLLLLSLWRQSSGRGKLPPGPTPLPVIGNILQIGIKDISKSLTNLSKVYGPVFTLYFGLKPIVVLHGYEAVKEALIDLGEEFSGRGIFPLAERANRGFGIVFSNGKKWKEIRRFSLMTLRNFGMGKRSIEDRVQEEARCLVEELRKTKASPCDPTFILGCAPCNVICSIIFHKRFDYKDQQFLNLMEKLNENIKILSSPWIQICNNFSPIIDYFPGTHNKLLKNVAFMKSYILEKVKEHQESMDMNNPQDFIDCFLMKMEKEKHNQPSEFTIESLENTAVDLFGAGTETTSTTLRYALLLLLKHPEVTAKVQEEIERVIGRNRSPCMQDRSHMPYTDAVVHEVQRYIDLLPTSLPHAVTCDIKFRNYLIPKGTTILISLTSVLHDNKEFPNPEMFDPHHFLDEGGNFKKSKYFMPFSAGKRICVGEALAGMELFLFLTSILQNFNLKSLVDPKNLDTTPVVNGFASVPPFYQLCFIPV

With `O=C(Nc1cccs1)Nc1ccccc1Br`, the IC50 – broadly, the concentration that inhibits the measured activity by half – in assay [1] is 8.26 µM (active); in [2] it was 57.6 µM (active); on Caspase-3, 20.3 µM (active); in [3], 33.5 µM (active).
On to `Cc1ccc(-c2nc3cccnc3o2)cc1NC(=O)COc1ccc(C(C)(C)C)cc1`, for which the AC50 – broadly, the midpoint of the concentration-response curve, whichever way the signal moves – in the assay on HEK293 is 36.3 µM (active); in assay [4], 10.8 µM (active); in assay [5], 14.6 µM (active). For the same molecule, the IC50 at Protein skinhead-1 is > 100 µM (inactive).
With `Cc1cccc(CNc2ncnc3ccc(-c4ccoc4)cc23)c1`, the results for the concentration at half-maximal activity (AC50) with HEK293 and on Cytochrome P450 2C9 were 35.1 µM (active) and 1 µM (inconclusive), respectively.

The values are drawn from ChEMBL document CHEMBL1201862, “PubChem BioAssay data set” (2004).
